Experimental data: patent publication US9296694B2, “Azacyclic compounds” (ACADIA Pharmaceuticals Inc., priority 2000, dated 2016)
Counter-ions that a name gives are not always drawn.

What was measured:
Test in all cases: R-SAT selectivity profile of 26HCH16D
Assay type in all cases: cell-based
H1 = molecular target: T1, H1 (Homo sapiens, UniProt P35367)
T1 construct: expressed in transfected cells; host or cells: NIH3T3, pSI vector
Experimental: (§1) The functional receptor assay, Receptor Selection and Amplification Technology (R-SAT), was used (with minor modifications from that previously described U.S. Pat. No. 5,707,798) to screen compounds for efficacy at the 5-HT2A receptor. Briefly, NIH3T3 cells were grown in 96 well tissue culture plates to 70-80% confluence. Cells were transfected for 12-16 hours with plasmid DNAs using superfect (Qiagen Inc.) as per manufacture's protocols. R-SAT's were generally performed with 50 ng/well of receptor and 20 ng/well of Beta-galactosidase plasmid DNA. All receptor and G-protein constructs used were in the pSI mammalian expression vector (Promega Inc) as described in U.S. Pat. No. 5,707,798. The 5HT2A receptor gene was amplified by nested PCR from brain cDNA using the oligodeoxynucleotides based on the published sequence (see Saltzman et. al. Biochem. Biophys. Res. Comm. 181:1469-78 (1991)). Large-scale transfections, cells were transfected for 12-16 hours, then trypsinized and frozen in DMSO. Frozen cells were later thawed, plated at 10,000-40,000 cells per well of a 96 well plate that contained drug. With both methods, cells were then grown in a humidified atmosphere with 5% ambient CO2 for five days. Media was then removed from the plates and marker gene activity was measured by the addition of the beta-galactosidase substrate ONPG (in PBS with 5% NP-40). The resulting colorimetric reaction was measured in a spectrophotometric plate reader (Titertek Inc.) at […]. All data were analyzed using the computer program XLFit (IDBSm). Efficacy is the percent maximal repression compared to repression by a control compound (ritanserin in the case of 5HT2A). pIC50 is the negative of the log(IC50), where IC50 is the calculated concentration in Molar that produces 50% maximal repression.
(§2) R-SAT assays (as described in Example 42) were carried out with cells transfected with receptors (listed below) to determine the receptor selectivity profile for compound 26HCH16D. 5HT2A inverse agonist data (IC50 nM; % efficacy) were derived from detailed dose response curves (7 points in triplicate).

D2 = molecular target: T2, D2 (Homo sapiens, UniProt P14416)
T2 construct: expressed in transfected cells; host or cells: NIH3T3, pSI vector
T2 sequence (P14416 whole entry): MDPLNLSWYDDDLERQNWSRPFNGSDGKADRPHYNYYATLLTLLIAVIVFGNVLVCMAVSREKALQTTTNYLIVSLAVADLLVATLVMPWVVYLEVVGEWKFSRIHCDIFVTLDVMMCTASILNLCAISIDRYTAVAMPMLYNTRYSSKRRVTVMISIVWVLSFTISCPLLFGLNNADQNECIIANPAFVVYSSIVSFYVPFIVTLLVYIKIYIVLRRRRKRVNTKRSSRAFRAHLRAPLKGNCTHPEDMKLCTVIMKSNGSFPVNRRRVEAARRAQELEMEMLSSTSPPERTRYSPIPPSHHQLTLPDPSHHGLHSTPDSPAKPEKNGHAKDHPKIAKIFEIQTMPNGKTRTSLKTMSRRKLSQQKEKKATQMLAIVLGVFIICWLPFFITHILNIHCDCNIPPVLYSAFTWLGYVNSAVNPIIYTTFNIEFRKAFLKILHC
Experimental: as §1, §2

5HT2C = molecular target: T3, 5HT2C (Homo sapiens, UniProt P28335); settings: Inverse Agonist; 4 dose profiling
T3 construct: expressed in transfected cells; host or cells: NIH3T3, pSI vector
T3 sequence (P28335 33-458): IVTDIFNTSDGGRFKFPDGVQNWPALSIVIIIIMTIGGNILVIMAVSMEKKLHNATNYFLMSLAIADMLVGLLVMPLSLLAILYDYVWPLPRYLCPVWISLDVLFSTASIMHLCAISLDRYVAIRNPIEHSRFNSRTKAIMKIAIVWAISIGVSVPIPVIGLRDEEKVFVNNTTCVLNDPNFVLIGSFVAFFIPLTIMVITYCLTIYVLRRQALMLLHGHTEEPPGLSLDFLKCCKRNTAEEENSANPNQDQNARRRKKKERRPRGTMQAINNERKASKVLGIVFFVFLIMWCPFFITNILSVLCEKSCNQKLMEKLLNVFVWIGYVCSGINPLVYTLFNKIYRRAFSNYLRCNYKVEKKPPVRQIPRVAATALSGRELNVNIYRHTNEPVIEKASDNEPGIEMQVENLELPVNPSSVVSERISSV
Experimental: as §1, §2

5HT1E = molecular target: T4, 5HT1E (Homo sapiens, UniProt P28566); settings: Agonist; 4 doses in duplicate (3, 30, 300, 3000 nM)
T4 construct: expressed in transfected cells; host or cells: NIH3T3, pSI vector
T4 sequence (P28566 whole entry): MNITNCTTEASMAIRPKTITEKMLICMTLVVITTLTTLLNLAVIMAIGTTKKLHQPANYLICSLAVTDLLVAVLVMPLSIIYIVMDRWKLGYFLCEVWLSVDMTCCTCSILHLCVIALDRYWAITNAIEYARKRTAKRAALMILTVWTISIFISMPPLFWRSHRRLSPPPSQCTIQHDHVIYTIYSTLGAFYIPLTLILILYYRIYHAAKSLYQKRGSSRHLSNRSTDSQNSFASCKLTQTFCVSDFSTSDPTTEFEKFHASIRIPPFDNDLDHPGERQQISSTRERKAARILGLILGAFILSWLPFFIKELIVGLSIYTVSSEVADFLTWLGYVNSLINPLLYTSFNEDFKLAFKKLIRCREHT
Experimental: as §1, §2

5HT1A = molecular target: T5, 5HT1A (Homo sapiens, UniProt P08908); settings: 4 doses in duplicate (3, 30, 300, 3000 nM)
T5 construct: expressed in transfected cells; host or cells: NIH3T3, pSI vector
T5 sequence (P08908 1-422): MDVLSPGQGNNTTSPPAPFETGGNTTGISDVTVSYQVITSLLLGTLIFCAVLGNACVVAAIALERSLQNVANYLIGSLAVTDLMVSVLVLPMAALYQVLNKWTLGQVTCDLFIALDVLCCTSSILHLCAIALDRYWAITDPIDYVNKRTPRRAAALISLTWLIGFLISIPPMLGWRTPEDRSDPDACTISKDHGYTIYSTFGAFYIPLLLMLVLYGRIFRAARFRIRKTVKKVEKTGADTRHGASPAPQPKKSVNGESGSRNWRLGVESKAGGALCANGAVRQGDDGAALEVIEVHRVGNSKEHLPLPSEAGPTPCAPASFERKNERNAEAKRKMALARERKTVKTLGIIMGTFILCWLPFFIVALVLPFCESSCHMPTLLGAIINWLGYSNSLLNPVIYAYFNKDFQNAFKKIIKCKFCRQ
Experimental: as §1, §2

5HT2B = molecular target: T6, 5HT2B (Homo sapiens, UniProt P41595); settings: Antagonist; 4 dose profiling
T6 construct: expressed in transfected cells; host or cells: NIH3T3, pSI vector
T6 sequence (P41595 whole entry): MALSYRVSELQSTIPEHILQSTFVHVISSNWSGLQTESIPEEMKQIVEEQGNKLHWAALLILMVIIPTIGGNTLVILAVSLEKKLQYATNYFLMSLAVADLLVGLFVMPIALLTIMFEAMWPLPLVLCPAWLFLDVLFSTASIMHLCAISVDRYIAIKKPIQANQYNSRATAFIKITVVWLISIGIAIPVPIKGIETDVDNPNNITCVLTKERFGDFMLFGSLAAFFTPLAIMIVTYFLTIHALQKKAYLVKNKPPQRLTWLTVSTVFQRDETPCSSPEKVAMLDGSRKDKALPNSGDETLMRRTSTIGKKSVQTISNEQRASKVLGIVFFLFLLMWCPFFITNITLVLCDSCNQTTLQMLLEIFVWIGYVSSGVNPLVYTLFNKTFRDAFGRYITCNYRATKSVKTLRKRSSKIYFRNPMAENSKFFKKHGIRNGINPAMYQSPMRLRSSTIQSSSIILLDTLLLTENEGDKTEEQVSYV
Experimental: as §1, §2

alpha1c/A = molecular target: T7, alpha1c/A (Homo sapiens, UniProt P35348)
T7 construct: expressed in transfected cells; host or cells: NIH3T3, pSI vector
T7 sequence (P35348 1-466): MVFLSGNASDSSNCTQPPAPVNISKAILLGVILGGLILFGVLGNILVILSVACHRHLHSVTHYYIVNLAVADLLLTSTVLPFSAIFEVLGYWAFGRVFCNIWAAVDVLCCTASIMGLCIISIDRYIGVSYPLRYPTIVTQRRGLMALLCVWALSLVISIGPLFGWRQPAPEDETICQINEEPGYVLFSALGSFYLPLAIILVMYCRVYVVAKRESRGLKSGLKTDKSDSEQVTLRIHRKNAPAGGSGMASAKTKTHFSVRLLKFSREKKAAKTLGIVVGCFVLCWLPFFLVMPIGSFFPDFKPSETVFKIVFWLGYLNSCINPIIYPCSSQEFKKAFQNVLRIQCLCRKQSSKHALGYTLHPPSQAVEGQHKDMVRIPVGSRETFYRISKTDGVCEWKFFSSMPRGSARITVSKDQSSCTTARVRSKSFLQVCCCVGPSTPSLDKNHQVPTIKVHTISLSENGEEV
Experimental: as §1, §2

[1] = Agonist, 4 doses in duplicate (3, 30, 300, 3000 nM)

T1 sequence (P35367 whole entry): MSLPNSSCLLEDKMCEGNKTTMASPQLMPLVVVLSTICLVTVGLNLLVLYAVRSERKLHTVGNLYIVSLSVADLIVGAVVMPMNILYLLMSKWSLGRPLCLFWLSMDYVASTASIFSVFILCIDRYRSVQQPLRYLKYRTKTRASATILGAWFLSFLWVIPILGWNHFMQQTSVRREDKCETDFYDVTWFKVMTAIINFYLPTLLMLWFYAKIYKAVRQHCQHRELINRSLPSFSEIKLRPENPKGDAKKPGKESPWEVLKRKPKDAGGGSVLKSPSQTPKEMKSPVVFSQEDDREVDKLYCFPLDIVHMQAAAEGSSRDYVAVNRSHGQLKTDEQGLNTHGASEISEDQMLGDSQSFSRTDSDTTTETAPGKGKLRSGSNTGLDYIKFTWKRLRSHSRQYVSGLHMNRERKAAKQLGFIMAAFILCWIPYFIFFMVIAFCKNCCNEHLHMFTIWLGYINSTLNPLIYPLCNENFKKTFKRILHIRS

With `Cc1ccc(CN(C(=O)NCc2ccccc2)C2CCN(Cc3ccccc3)CC2)cc1` [Compound 26HCH16D, N-((4-Methylphenyl)methyl)-N-(1-(phenylmethyl)piperidin-4-yl)-N′-phenylmethylcarbamide hydrochloride] the Efficacy (H1; [1]) was “nr (nr=activity less than 30% at all doses tested (3, 30, 300, 3000 nM), therefore EC50/IC50 greater than 3000 nM))”, the “initial concentration at which at least 30% efficacy observed” value (H1; Antagonist, 4 dose profiling) was 3000 nM and the Efficacy (D2; [1]) was “nr (nr=activity less than 30% at all doses tested (3, 30, 300, 3000 nM), therefore EC50/IC50 greater than 3000 nM))”. For the same compound, the “initial concentration at which at least 30% efficacy observed” value (D2; Antagonist, 4 dose profiling) was 3000 nM, the “initial concentration at which at least 30% efficacy observed” value (5HT2C) was 3000 nM and the Efficacy (5HT1E) was “nr (nr=activity less than 30% at all doses tested (3, 30, 300, 3000 nM), therefore EC50/IC50 greater than 3000 nM))”. The Efficacy (5HT1A; Agonist) was “nr (nr=activity less than 30% at all doses tested (3, 30, 300, 3000 nM), therefore EC50/IC50 greater than 3000 nM))”, the Efficacy (5HT1A; Antagonist) was “nr (nr=activity less than 30% at all doses tested (3, 30, 300, 3000 nM), therefore EC50/IC50 greater than 3000 nM))” and the “initial concentration at which at least 30% efficacy observed” value (5HT2B) was 3000 nM. For the same compound, the Efficacy (alpha1c/A; [1]) was “nr (nr=activity less than 30% at all doses tested (3, 30, 300, 3000 nM), therefore EC50/IC50 greater than 3000 nM))” and the “initial concentration at which at least 30% efficacy observed” value (alpha1c/A; Antagonist, 4 dose profiling) was 3000 nM.
